This note sets out measurements from EP0318240A2, “Peptide, adsorbent, method for production thereof, and method for use thereof” (AGENCY OF INDUSTRIAL SCIENCE & TECHNOLOGY MINISTRY OF …, priority 1987, dated 1989).

The data set in a line: Solubility of peptide in the phosphate buffer solution used for immobilization. The format is physicochemical. The settings on record: phosphate buffer solution (0.02 mol/liter) of pH 7.4. As to the method: • (a) In 50 ml of dioxane obtained by distillation in the presence of sodium metal, 10 g of cellulose particles (marketed by Seikagaku Kogyo Co., Ltd. under the tradename "CM-Cellulofine CH") were suspended. In the suspension, 0.5 g of N-hydroxysuccinimide and 1.0 g of dicyclohexylcarbodiimide added thereto were shaken overnight at room temperature. The resultant mixture was washed with a phosphate buffer solution (0.02 mol/liter) of pH 7.4 and suction filtered. The particles consequently obtained and 20 ml of a phosphate buffer solution (0.02 mol/liter) of pH 7.4 containing 20 mg of the peptide of Example 1 added thereto were stirred overnight at a temperature of 4°C. The mixture consequently obtained was suction filtered. […] Thus, about 10 g of cellulose particles (the adsorbent not heat treated) having immobilized thereon 20 mg of the peptide of Example 1 were obtained. • (b) In 5-ml aliquots of a phosphate buffer solution (0.02 mol/liter) of pH 7.4 containing sodium chloride in a concentration of 0.15 mol/liter, the peptide-immobilized cellulose particles obtained as described above were suspended in a unit amount of 1 g. […]

In the case of “H-Leu-Leu-Gly-Trp-Lys-His-Trp-Val-Tyr-Tyr-Thr- C y s - C^y s -Pro-Asp-Thr-Pro-Tyr-Leu-Asp-OH [Referential Example 2]”, the “solubility in the phosphate buffer solution” value was “low solubility”.
